From US10947242B2, “[1,2,4]triazolo[1,5and#8208;A]pyrimidine compounds as PDE2 inhibitors” (Janssen Pharmaceutica NV, priority 2016, dated 2021) come the findings set out here.

Common to all, as to assay type: biochemical
The target in assay [1] is T1, Human recombinant PDE3A (hPDE3A) (Homo sapiens, UniProt Q14432).
T1 construct: purchased Scottish Biomedical; host or cells: Sf9 insect cells
Description: In vitro assay PDE3A (SPA, 3H-cAMP hydrolysis).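 On all read-outs here: the method names PDE3A and the table heading PDE3B.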 The settings on record: for IC50: hPDE3B pIC50, read-out: pIC50 (converted); for Emax: read-out: hPDE3B Emax, read-out: Emax. The method, boiled down:
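Human PDE3A, cloned from brain, as partially purified Sf9 lysate. Substrate 0.4 μM cAMP plus [3H]-cAMP (2.4 μCi/ml final) in 50 mM Tris pH 7.8, 8.3 mM MgCl2, 1.7 mM EGTA, 60 min at room temperature, 1% DMSO final. Hydrolysis read by SPA scintillation counting against no-enzyme blanks and DMSO controls.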

For assay [2], the target named is T2, Human recombinant PDE10A (hPDE10A) (Homo sapiens, UniProt Q9Y233).
T2 construct: His tag (inferred from metal chelate purification); made in house; host or cells: Sf9 insect cells (baculovirus)
T2 sequence (Q9Y233 267-1055): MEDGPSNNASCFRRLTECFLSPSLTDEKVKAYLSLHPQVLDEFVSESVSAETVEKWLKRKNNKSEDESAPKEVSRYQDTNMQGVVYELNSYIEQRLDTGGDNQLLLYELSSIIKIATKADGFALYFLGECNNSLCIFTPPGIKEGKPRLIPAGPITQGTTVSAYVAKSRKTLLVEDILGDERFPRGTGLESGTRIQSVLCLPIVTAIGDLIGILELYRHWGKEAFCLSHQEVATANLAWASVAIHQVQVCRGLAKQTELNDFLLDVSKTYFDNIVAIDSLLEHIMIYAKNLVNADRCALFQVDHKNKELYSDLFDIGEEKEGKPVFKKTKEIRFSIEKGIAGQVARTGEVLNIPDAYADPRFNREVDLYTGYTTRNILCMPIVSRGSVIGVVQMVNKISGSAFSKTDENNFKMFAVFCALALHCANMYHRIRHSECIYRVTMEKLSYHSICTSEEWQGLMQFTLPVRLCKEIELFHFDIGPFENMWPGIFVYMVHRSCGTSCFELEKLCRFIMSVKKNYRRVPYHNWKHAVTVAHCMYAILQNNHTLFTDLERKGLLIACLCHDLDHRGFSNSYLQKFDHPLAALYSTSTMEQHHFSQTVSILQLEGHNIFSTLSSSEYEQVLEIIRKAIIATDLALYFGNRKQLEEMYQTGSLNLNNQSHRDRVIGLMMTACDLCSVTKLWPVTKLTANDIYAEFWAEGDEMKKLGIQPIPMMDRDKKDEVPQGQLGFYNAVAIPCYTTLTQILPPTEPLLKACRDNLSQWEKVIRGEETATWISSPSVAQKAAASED
Description: In vitro assay PDE10A, human clone (SPA, 3H-cAMP hydrolysis). The method, boiled down: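 Human recombinant PDE10A was expressed in Sf9 cells via baculovirus and incubated with compound in 50 mM Tris pH 7.8, 8.3 mM MgCl2, 1.7 mM EGTA. Substrate was 60 nM cAMP plus 0.008 μCi 3H-cAMP for 60 min at room temperature, read by SPA scintillation counting. Controls used 1% DMSO, and blanks omitted enzyme.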

Assay [3] deals with T3, Human recombinant PDE2A (hPDE2A) (Homo sapiens, UniProt O00408).
T3 construct: His tag (inferred from metal chelate purification); made in house; host or cells: Sf9 insect cells (baculovirus)
T3 sequence (O00408 whole entry): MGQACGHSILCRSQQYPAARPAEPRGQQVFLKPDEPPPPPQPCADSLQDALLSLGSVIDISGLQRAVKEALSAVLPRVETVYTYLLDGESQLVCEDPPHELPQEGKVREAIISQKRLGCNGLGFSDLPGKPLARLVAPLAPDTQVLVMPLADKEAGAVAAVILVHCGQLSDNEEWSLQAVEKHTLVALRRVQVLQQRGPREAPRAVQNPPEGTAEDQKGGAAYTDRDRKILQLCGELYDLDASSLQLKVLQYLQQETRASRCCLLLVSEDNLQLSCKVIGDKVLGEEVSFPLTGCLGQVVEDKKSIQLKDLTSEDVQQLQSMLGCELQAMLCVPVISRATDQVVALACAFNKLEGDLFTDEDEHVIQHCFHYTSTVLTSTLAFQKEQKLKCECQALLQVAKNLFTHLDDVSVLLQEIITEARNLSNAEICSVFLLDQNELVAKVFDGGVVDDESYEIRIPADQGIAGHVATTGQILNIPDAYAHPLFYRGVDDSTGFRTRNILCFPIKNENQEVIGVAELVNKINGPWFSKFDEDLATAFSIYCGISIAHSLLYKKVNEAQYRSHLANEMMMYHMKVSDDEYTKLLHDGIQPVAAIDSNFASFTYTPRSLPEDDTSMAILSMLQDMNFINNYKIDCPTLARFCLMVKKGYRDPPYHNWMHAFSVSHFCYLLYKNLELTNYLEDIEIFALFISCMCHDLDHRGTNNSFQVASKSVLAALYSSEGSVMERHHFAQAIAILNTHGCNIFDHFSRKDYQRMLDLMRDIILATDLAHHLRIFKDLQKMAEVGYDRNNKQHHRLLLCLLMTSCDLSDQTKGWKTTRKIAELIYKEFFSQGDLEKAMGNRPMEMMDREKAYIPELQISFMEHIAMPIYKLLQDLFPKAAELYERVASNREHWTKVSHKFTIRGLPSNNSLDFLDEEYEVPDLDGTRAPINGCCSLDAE
Description: In vitro assay PDE2A (SPA, 3H-cGMP hydrolysis). As to conditions: for Emax: read-out: hPDE2A Emax; for IC50: read-out: hPDE2A pIC50 (converted).

Where [4] appears, read: human clone (h), default, read-out: hPDE10A2 Emax.
Setting [5] is: human clone (h), default, read-out: hPDE10A2 pIC50 (converted).
Where [6] appears, read: human clone by default (no (r) mark), read-out: hPDE10A2 or rPDE10A2 Emax.
Where [7] appears, read: human clone by default (no (r) mark), read-out: hPDE10A2 or rPDE10A2 pIC50 (converted).
[8] abbreviates: human recombinant PDE2A, 10 μM cGMP substrate.

Each structure is given as a SMILES string. Where two headings read alike, the source gives them in different places.

T1 sequence (Q14432 whole entry): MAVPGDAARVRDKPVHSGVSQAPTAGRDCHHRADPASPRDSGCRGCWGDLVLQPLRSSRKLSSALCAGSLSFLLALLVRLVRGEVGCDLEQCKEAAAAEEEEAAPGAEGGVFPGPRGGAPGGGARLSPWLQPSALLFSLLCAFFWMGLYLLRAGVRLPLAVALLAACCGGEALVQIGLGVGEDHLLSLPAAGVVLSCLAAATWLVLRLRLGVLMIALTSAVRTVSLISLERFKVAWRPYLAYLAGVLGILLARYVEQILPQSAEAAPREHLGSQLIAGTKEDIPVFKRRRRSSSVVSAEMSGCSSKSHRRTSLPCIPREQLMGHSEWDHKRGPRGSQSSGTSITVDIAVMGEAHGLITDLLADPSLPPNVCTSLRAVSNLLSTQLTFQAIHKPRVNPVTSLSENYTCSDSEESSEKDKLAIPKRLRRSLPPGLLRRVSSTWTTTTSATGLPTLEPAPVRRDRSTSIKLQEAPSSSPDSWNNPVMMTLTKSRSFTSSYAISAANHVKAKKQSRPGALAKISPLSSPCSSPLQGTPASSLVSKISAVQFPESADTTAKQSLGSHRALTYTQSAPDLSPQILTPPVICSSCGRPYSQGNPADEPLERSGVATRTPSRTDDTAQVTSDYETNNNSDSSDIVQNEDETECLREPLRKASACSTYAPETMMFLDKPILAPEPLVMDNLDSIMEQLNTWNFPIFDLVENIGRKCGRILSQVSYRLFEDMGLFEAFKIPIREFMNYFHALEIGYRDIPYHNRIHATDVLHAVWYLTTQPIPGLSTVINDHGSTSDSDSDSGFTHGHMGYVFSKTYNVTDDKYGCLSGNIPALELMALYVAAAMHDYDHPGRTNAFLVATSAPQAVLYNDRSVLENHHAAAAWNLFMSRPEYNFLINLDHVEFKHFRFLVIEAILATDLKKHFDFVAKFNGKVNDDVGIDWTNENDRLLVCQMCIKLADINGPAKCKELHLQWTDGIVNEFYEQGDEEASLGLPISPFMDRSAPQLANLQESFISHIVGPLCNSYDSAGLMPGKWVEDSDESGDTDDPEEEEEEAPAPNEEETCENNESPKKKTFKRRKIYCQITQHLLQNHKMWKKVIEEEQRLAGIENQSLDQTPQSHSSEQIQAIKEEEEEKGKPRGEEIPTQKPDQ

Regarding `CCCOc1cccnc1C(=O)N1CC[C@@H](C)[C@H](c2cc(C(F)F)nc3ncnn23)C1` [Compound 246], the IC50 was above 10000 nM in assay [1], above 10000 nM in assay [2] (setting [5]), above 10000 nM in assay [2] (setting [7]) and 126 nM in assay [3]. Moreover, the Emax in assay [1] was found to be 25%; in assay [2] (setting [4]), 44%; in assay [2] (setting [6]) it was 44%; in assay [3], 98%.
As to `C[C@@H]1CCN(C(=O)c2ccc(C#N)cn2)C[C@H]1c1cc(C(F)F)nc2ncnn12` [Compound 234], the IC50 was above 10000 nM in assay [1]; 8710 nM in assay [2] (setting [5]); 8710 nM in assay [2] (setting [7]); 513 nM in assay [3] (setting [8]); 513 nM in assay [3]. The Emax was determined as 22% in assay [1]; 59% in assay [2] (setting [4]); 59% in assay [2] (setting [6]); 96% in assay [3] (human recombinant PDE2A); 96% in assay [3].
Take `COc1ccc2nc(C(=O)N3CC[C@@H](C)[C@H](c4cc(C(F)F)nc5ncnn45)C3)sc2c1` [Compound 171]: the IC50 in assay [1] was 1150 nM; in assay [2] (setting [5]), 355 nM; in assay [3] (setting [8]), 11.7 nM; in assay [3] it was 11.7 nM. The Emax in assay [1] is 93%; in assay [2] (setting [4]) it was 97%; in assay [3] (human recombinant PDE2A) it was 99%; in assay [3], 99%.
As for `Cc1cc([C@@H]2CN(C(=O)c3ccc(C(C)(C)C)o3)CC[C@H]2C)n2ncnc2n1` [Compound 9], the IC50 in assay [1] was 4270 nM; in assay [2] (setting [5]), 74.1 nM; in assay [3] (setting [8]), 13.8 nM; in assay [3], 13.8 nM. The Emax in assay [1] was 74%; in assay [2] (setting [4]), 100%; in assay [3] (human recombinant PDE2A) it was 101%; in assay [3], 101%.
For `C[C@@H]1CCN(C(=O)c2cocn2)C[C@H]1c1cc(C(F)F)nc2ncnn12` [Compound 87], the IC50 was above 10000 nM in assay [1], 4570 nM in assay [2] (setting [5]), 214 nM in assay [3] (setting [8]) and 214 nM in assay [3]. For the same compound, the Emax in assay [1] was found to be 11%; in assay [2] (setting [4]), 69%; in assay [3] (human recombinant PDE2A), 98%; in assay [3] it was 98%.
Take `C[C@@H]1CCN(C(=O)c2nccnc2N)C[C@H]1c1cc(C(F)F)nc2ncnn12` [Compound 261]: the IC50 in assay [1] is above 10000 nM; in assay [2] (setting [5]), above 10000 nM; in assay [2] (setting [7]) it was above 10000 nM; in assay [3], 363 nM. Also, the Emax turned out to be 19% in assay [1], 45% in assay [2] (setting [4]), 45% in assay [2] (setting [6]) and 95% in assay [3].
For `C[C@@H]1CCN(C(=O)c2ccc(C(F)(F)F)nc2Cl)C[C@H]1c1cc(C(F)F)nc2ncnn12` [Compound 242], the IC50 in assay [1] is 6170 nM; in assay [2] (setting [5]), 8130 nM; in assay [2] (setting [7]), 8130 nM; in assay [3] (setting [8]) it was 135 nM; in assay [3], 135 nM. In addition, the Emax in assay [1] was determined as 67%; in assay [2] (setting [4]) it was 56%; in assay [2] (setting [6]) it was 56%; in assay [3] (human recombinant PDE2A), 97%; in assay [3] it was 97%.
Take `Cc1cc([C@@H]2CN(C(=O)c3cccc4nc(C)oc34)CC[C@H]2C)n2ncnc2n1` [Compound 19]: the IC50 in assay [1] was 3090 nM; in assay [2] (setting [5]) it was 129 nM; in assay [3] (setting [8]), 10.5 nM; in assay [3], 10.5 nM. Moreover, the Emax in assay [1] is 79%; in assay [2] (setting [4]), 96%; in assay [3] (human recombinant PDE2A), 101%; in assay [3] it was 101%.
`Cc1cnc(C(=O)N2[C@H]3CC[C@H](c4cc(C(F)F)nc5ncnn45)[C@@H]2CC3)cc1C` [Compound 365]: the IC50 in assay [1] was above 10000 nM; in assay [2] (setting [7]), above 10000 nM; in assay [3] it was 63.1 nM. Further, the Emax in assay [1] was 24%; in assay [2] (setting [6]) it was 33%; in assay [3] it was 99%.
Consider `Cc1nc(C(=O)N2CC[C@@H](C)[C@H](c3cc(C(F)F)nc4ncnn34)C2)c(C(F)(F)F)o1` [Compound 161], for which the IC50 in assay [1] is above 10000 nM; in assay [2] (setting [5]), 3090 nM; in assay [3] (setting [8]), 74.1 nM; in assay [3], 74.1 nM. Further, the Emax in assay [1] turned out to be 11%; in assay [2] (setting [4]), 74%; in assay [3] (human recombinant PDE2A), 98%; in assay [3], 98%.
For the compound `Cc1cc([C@H]2CN(C(=O)c3ccc4nccn4c3)CC[C@@H]2C)n2ncnc2n1` [Compound 216], the IC50 in assay [1] is above 10000 nM; in assay [2] (setting [5]) it was 4470 nM; in assay [2] (setting [7]) it was 4470 nM; in assay [3] (setting [8]), 437 nM; in assay [3], 437 nM. Also, the Emax in assay [1] stood at 26%; in assay [2] (setting [4]), 67%; in assay [2] (setting [6]), 67%; in assay [3] (human recombinant PDE2A), 98%; in assay [3], 98%.
With `C[C@@H]1CCN(C(=O)c2ccc(C3CC3)c(C3CC3)c2)C[C@H]1c1cc(C(F)F)nc2ncnn12` [Compound 226], the IC50 in assay [1] is 129 nM; in assay [2] (setting [5]), 81.3 nM; in assay [2] (setting [7]), 81.3 nM; in assay [3] (setting [8]) it was 0.871 nM; in assay [3], 0.871 nM. The maximum response (Emax) in assay [1], in assay [2] (setting [4]), in assay [2] (setting [6]), in assay [3] (human recombinant PDE2A) and in assay [3] was 100% throughout.
Regarding `C/C(=C\c1ccc(F)cc1)C(=O)N1[C@H]2CC[C@H](c3cc(C(F)F)nc4ncnn34)[C@@H]1CC2` [Compound 370], the IC50 in assay [1] is 1450 nM; in assay [2] (setting [7]), 661 nM; in assay [3], 33.9 nM. In addition, the Emax is 87% in assay [1], 94% in assay [2] (setting [6]) and 100% in assay [3].
With `O=C(c1ccc(C(F)(F)F)cc1)N1[C@H]2CC[C@H](c3cc(C(F)F)nc4ncnn34)[C@@H]1CC2` [Compound 340], the figures for the IC50 in assay [1], in assay [2] (setting [7]) and in assay [3] were 4270 nM, 3310 nM and 70.8 nM, respectively. Also, the Emax is 69% in assay [1], 72% in assay [2] (setting [6]) and 100% in assay [3].
In the case of `C[C@@H]1CCN(C(=O)c2cc(C(C)(C)C)nc(C(C)(C)C)c2)C[C@H]1c1cc(C(F)F)nc2ncnn12` [Compound 266], the IC50 in assay [1] is 5370 nM; in assay [2] (setting [5]), 2630 nM; in assay [2] (setting [7]), 2630 nM; in assay [3] it was 417 nM. Further, the Emax in assay [1] stood at 74%; in assay [2] (setting [4]), 89%; in assay [2] (setting [6]), 89%; in assay [3], 100%.
Turning to `Cc1cc(C(=O)N2CC[C@@H](C)[C@H](c3cc(C(F)F)nc4ncnn34)C2)on1` [Compound 152], the IC50 in assay [1] is above 10000 nM; in assay [2] (setting [5]) it was 2040 nM; in assay [3] (setting [8]) it was 41.7 nM; in assay [3] it was 41.7 nM. Moreover, the maximal effect (Emax) in assay [1] was 30%; in assay [2] (setting [4]), 80%; in assay [3] (human recombinant PDE2A), 99%; in assay [3], 99%.
For `C[C@@H]1CCN(C(=O)c2cnc(CF)cn2)C[C@H]1c1cc(C(F)F)nc2ncnn12` [Compound 255], the IC50 in assay [1] was above 10000 nM; in assay [2] (setting [5]) it was 7760 nM; in assay [2] (setting [7]) it was 7760 nM; in assay [3], 269 nM. Further, the Emax worked out at 28% in assay [1], 58% in assay [2] (setting [4]), 58% in assay [2] (setting [6]) and 95% in assay [3].
Regarding `Cc1cc([C@@H]2CN(C(=O)c3ccn(C)c3)CC[C@H]2C)n2ncnc2n1` [Compound 14], the IC50 was 4680 nM in assay [1], 89.1 nM in assay [2] (setting [5]), 6.03 nM in assay [3] (setting [8]) and 6.03 nM in assay [3]. Further, the Emax in assay [1] was found to be 70%; in assay [2] (setting [4]) it was 99%; in assay [3] (human recombinant PDE2A), 99%; in assay [3], 99%.
As to `Cc1c(C(=O)N2[C@H]3CC[C@@H]2[C@H](c2cc(C(F)F)nc4ncnn24)CC3)oc2ccccc12` [Compound 140], the IC50 in assay [1] was 8910 nM; in assay [2] (setting [5]), 3090 nM; in assay [3] (setting [8]), 29.5 nM; in assay [3] it was 29.5 nM. In addition, the maximal effect (Emax) in assay [1] was determined as 57%; in assay [2] (setting [4]), 83%; in assay [3] (human recombinant PDE2A) it was 100%; in assay [3], 100%.
With `CC(C)(C)c1ccc(C(=O)N2[C@H]3CC[C@H](c4cc(C(F)F)nc5ncnn45)[C@@H]2CC3)o1` [Compound 348], the IC50 was 4470 nM in assay [1], 1290 nM in assay [2] (setting [7]) and 33.9 nM in assay [3]. Further, the maximal effect (Emax) in assay [1] was determined as 70%; in assay [2] (setting [6]), 92%; in assay [3], 99%.
Consider `C[C@@H]1CCN(C(=O)c2c(Cl)cncc2Cl)C[C@H]1c1cc(C(F)F)nc2ncnn12` [Compound 268], for which the IC50 in assay [1] is above 10000 nM; in assay [2] (setting [5]), above 10000 nM; in assay [2] (setting [7]) it was above 10000 nM; in assay [3], 1910 nM. Besides, the maximal effect (Emax) came out at 13% in assay [1], 39% in assay [2] (setting [4]), 39% in assay [2] (setting [6]) and 82% in assay [3].

A word on the Emax: it is the size of the effect at its maximum, as opposed to the concentration needed.
